Key:
Settings in all cases: incubation time: 72 h
[1] = tested on: DU-4475; assay: normalised response (% of control), CellTiter-Glo; higher = more viable cells (100 = DMSO, 0 = benzethonium chloride kill control)
How it was run: (§1)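 In 384-well plates holding compound at 5 concentrations in 10-fold steps over a 10,000-fold range specific to each compound, breast cancer cell lines were seeded as 20 µl suspension and incubated 72 h. CellTox Green fluorescence was measured at 485/520 nm, after which CellTiter-Glo luminescence was measured following 10 min at room temperature. Plate signals were normalised to 0.1 % DMSO (100) and a positive kill control (0), and each value is the normalised signal at a single concentration.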

[2] = tested on: SK-BR-3; assay: as above
How it was run: as §1

[3] = tested on: CAL-85-1; assay: as above
How it was run: as §1

[4] = tested on: MDA-MB-468; assay: as above
How it was run: as §1

[5] = tested on: HDQ-P1; assay: as above
How it was run: as §1

[6] = tested on: Hs578T; assay: as above
How it was run: as §1

[7] = tested on: CAL-120; assay: as above
How it was run: as §1

[8] = tested on: CAL-148; assay: as above
How it was run: as §1

[9] = tested on: HCC1937; assay: as above
How it was run: as §1

[10] = tested on: MFM-223; assay: as above
How it was run: as §1

[11] = tested on: HCC1143; assay: as above
How it was run: as §1

[12] = tested on: BT-549; assay: as above
How it was run: as §1

[13] = tested on: MDA-MB-436; assay: as above
How it was run: as §1

[14] = tested on: CAL-51; assay: as above
How it was run: as §1

[15] = tested on: BT-474; assay: as above
How it was run: as §1

[16] = tested on: MDA-MB-231; assay: as above
How it was run: as §1

[17] = tested on: HCC1599; assay: as above
How it was run: as §1

[18] = tested on: MCF-10A; assay: as above
How it was run: as §1

[19] = tested on: MDA-MB-453; assay: as above
How it was run: as §1

[20] = tested on: DU-4475; assay: normalised viability (% of control), CellTiter-Blue; higher = more viable cells (100 = DMSO, 0 = benzethonium chloride kill control)
How it was run: (§2)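 Each value is normalised viability at a single listed concentration of the series. Breast cancer cell lines in 384-well plates were incubated 72 h with compound and read by CellTiter-Blue fluorescence at 560/590 nm, with vehicle set to 100 and a positive kill control to 0 on every plate.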

[21] = tested on: SK-BR-3; assay: as above
How it was run: as §2

[22] = tested on: CAL-85-1; assay: as above
How it was run: as §2

[23] = tested on: MDA-MB-468; assay: as above
How it was run: as §2

[24] = tested on: HDQ-P1; assay: as above
How it was run: as §2

[25] = tested on: Hs578T; assay: as above
How it was run: as §2

[26] = tested on: CAL-120; assay: as above
How it was run: as §2

[27] = tested on: CAL-148; assay: as above
How it was run: as §2

[28] = tested on: HCC1937; assay: as above
How it was run: as §2

[29] = tested on: MFM-223; assay: as above
How it was run: as §2

[30] = tested on: HCC1143; assay: as above
How it was run: as §2

[31] = tested on: BT-549; assay: as above
How it was run: as §2

[32] = tested on: MDA-MB-436; assay: as above
How it was run: as §2

[33] = tested on: CAL-51; assay: as above
How it was run: as §2

[34] = tested on: BT-474; assay: as above
How it was run: as §2

[35] = tested on: MDA-MB-231; assay: as above
How it was run: as §2

[36] = tested on: HCC1599; assay: as above
How it was run: as §2

[37] = tested on: MDA-MB-453; assay: as above
How it was run: as §2

With O=C(c1ccc(OCCN2CCCCC2)cc1)c1c(-c2ccc(O)cc2)sc2cc(O)ccc12 [Raloxifene] (1 nM) the normalised response [1] was 102%, the normalised response [2] was 110% and the normalised response [3] was 101%. It also gave a normalised response [4] of 101%, a normalised response [5] of 107% and a normalised response [6] of 108%. For the same compound, the normalised response [7] was 97.9%, the normalised response [8] was 108% and the normalised response [9] was 102%. It also gave a normalised response [10] of 99.6%, a normalised response [11] of 109% and a normalised response [12] of 104%. For the same compound, the normalised response [13] was 105%, the normalised response [14] was 114% and the normalised response [15] was 99.7%. For the same compound, the normalised response [16] was 101%, the normalised response [17] was 97% and the normalised response [18] was 109%. For the same compound, the normalised response [19] was 105%, the normalised viability [20] was 110% and the normalised viability [21] was 90.8%. It also gave a normalised viability [22] of 103%, a normalised viability [23] of 105% and a normalised viability [24] of 101%. The normalised viability [25] was 99.8%, the normalised viability [26] was 90.7% and the normalised viability [27] was 98.2%. It also gave a normalised viability [28] of 88.3%, a normalised viability [29] of 91.2% and a normalised viability [30] of 86.1%. For the same compound, the normalised viability [31] was 95.2%, the normalised viability [32] was 91.6% and the normalised viability [33] was 96.8%. It also gave a normalised viability [34] of 71.6%, a normalised viability [35] of 87.1% and a normalised viability [36] of 101%. For the same compound, the normalised viability [37] was 85%.

For C[C@@H]1C=C2C(=O)O[C@@H]3CC[C@H](C1)[C@]23O [Galiellalactone] (5 nM), the normalised response [1] was 97.2%, the normalised response [2] was 108% and the normalised response [3] was 98.1%. The normalised response [4] was 108%, the normalised response [5] was 107% and the normalised response [6] was 107%. It also gave a normalised response [7] of 105%, a normalised response [8] of 107% and a normalised response [9] of 98%. It also gave a normalised response [10] of 107%, a normalised response [11] of 105% and a normalised response [12] of 101%. The normalised response [13] was 107%, the normalised response [14] was 104% and the normalised response [15] was 106%. For the same compound, the normalised response [16] was 103%, the normalised response [17] was 102% and the normalised response [18] was 111%. The normalised response [19] was 108%, the normalised viability [20] was 104% and the normalised viability [21] was 94%. It also gave a normalised viability [22] of 94.9%, a normalised viability [23] of 96.7% and a normalised viability [24] of 120%. The normalised viability [25] was 109%, the normalised viability [26] was 81.3% and the normalised viability [27] was 115%. The normalised viability [28] was 84.3%, the normalised viability [29] was 102% and the normalised viability [30] was 98.9%. For the same compound, the normalised viability [31] was 112%, the normalised viability [32] was 94.6% and the normalised viability [33] was 106%. It also gave a normalised viability [34] of 105%, a normalised viability [35] of 93.7% and a normalised viability [36] of 88.1%. For the same compound, the normalised viability [37] was 97%.

C#Cc1cccc(Nc2ncnc3cc(OC)c(OCCCCCCC(=O)NO)cc23)c1 [CUDC-101] (1 nM) gave a normalised response [1] of 99.1%, a normalised response [2] of 90.8% and a normalised response [3] of 94.8%. It also gave a normalised response [4] of 93.8%, a normalised response [5] of 97% and a normalised response [6] of 101%. It also gave a normalised response [7] of 100%, a normalised response [8] of 98.2% and a normalised response [9] of 96.6%. For the same compound, the normalised response [10] was 98.5%, the normalised response [11] was 102% and the normalised response [12] was 101%. The normalised response [13] was 98.6%, the normalised response [14] was 74.1% and the normalised response [15] was 96.5%. For the same compound, the normalised response [16] was 109%, the normalised response [17] was 108% and the normalised response [18] was 90.8%. It also gave a normalised response [19] of 108%, a normalised viability [20] of 97.5% and a normalised viability [21] of 82.3%. It also gave a normalised viability [22] of 77.3%, a normalised viability [23] of 94.4% and a normalised viability [24] of 85.7%. The normalised viability [25] was 94.9%, the normalised viability [26] was 79.4% and the normalised viability [27] was 97.1%. It also gave a normalised viability [28] of 85.9%, a normalised viability [29] of 78% and a normalised viability [30] of 79.9%. For the same compound, the normalised viability [31] was 96%, the normalised viability [32] was 96.4% and the normalised viability [33] was 111%. For the same compound, the normalised viability [34] was 108%, the normalised viability [35] was 94.9% and the normalised viability [36] was 115%. It also gave a normalised viability [37] of 88%.

In the case of COc1c(C)cnc(Cn2cnc3c(Cl)nc(N)nc32)c1C [BIIB021] (1 nM), the normalised response [1] is reported as 103%, the normalised response [2] is reported as 93.6% and the normalised response [3] is reported as 98.1%. The normalised response [4] was 101%, the normalised response [5] was 95.6% and the normalised response [6] was 106%. The normalised response [7] was 103%, the normalised response [8] was 106% and the normalised response [9] was 103%. For the same compound, the normalised response [10] was 102%, the normalised response [11] was 97.6% and the normalised response [12] was 95.6%. It also gave a normalised response [13] of 99%, a normalised response [14] of 74% and a normalised response [15] of 99.1%. It also gave a normalised response [16] of 112%, a normalised response [17] of 124% and a normalised response [18] of 104%. For the same compound, the normalised response [19] was 106%, the normalised viability [20] was 87.7% and the normalised viability [21] was 75.8%. The normalised viability [22] was 78.1%, the normalised viability [23] was 94.6% and the normalised viability [24] was 86.4%. For the same compound, the normalised viability [25] was 105%, the normalised viability [26] was 76.8% and the normalised viability [27] was 96.5%. It also gave a normalised viability [28] of 93.4%, a normalised viability [29] of 80.8% and a normalised viability [30] of 82.9%. It also gave a normalised viability [31] of 97.7%, a normalised viability [32] of 102% and a normalised viability [33] of 101%. The normalised viability [34] was 91.7%, the normalised viability [35] was 76.3% and the normalised viability [36] was 143%. The normalised viability [37] was 93.9%.
